{
  "source": "paper PMC11891075",
  "about": "“TRIM66-HP1γ remodels the chromatin through phase separation” (Biophysics Reports, 2025)",
  "molecules": {"B1": {"name": "GST-TRIM66^820-909: GST-tagged TRIM66 residues 820–909, which contains HP1γ-CSD binding motif (protein, UniProt O15016 820-909, looked up, fragment)", "chain": "NLISDSPQAMASLASDHPQAGPSLMSGHTQAVPSLATCPLQSIPPVSDMQPETGSSSSSGRTSGSLCPRDGADPSLENALCKMESEDSTR", "modifications": "GST tag"}},
  "key": {"HP1γ-CSD^D131A": {"molecular_target": "T1, HP1γ-CSD^D131A (Homo sapiens, UniProt Q13185, D131A)", "T1 construct": "HP1γ CSD (110–176aa) and TRIM66 PxVxL motif peptide(856–868aa), mixed at a molar ratio of 1:1.2; His6 (N); made in house", "T1 sequence (Q13185 110-176 D131A)": "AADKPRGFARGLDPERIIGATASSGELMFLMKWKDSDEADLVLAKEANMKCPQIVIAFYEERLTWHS", "test": "ITC, HP1γ-CSD D131A mutant", "type": "binding", "conditions": "20 °C, 20 mmol/L Tris-HCl, 150 mmol/L NaCl, pH 7.5, Fig. 2G", "description": "(§1) HP1γ_CSD (residues 110–176) was amplified by PCR from the human brain cDNA library and cloned into the pET-28a(+) expression vector (Novagen), contained an N-terminal 6× His tag and a tobacco etch virus (TEV) protease cleavage site. All mutants of HP1 were generated using a MutantBEST kit (Takara) and confirmed by DNA sequencing. All the proteins were expressed in Escherichia coli BL21 (DE3) cells (Novagen) cultured in LB medium at 37 °C to OD600 = 0.8, then shifted to 16 °C and induced with 0.5 mmol/L isopropyl β-D-1-thiogakactopyranoside (IPTG) for 24 h. Bacterial pellets were resuspended in Buffer A (20 mmol/L Tris-HCl, 500 mmol/L NaCl, pH 7.5) and lysed by sonication on ice. Then, soluble proteins were purified with a Ni^2+-chelating column (Cytiva Life Sciences) and a Superdex 75 column (Cytiva Life Sciences). After being cleaved by TEV protease overnight at 4 °C to remove the 6× His tag, the purified protein was concentrated to ∼10 mg/mL in Buffer B (20 mmol/L Tris-HCl, 150 mmol/L NaCl, pH 7.5) and stored at –80 °C. […]\n(§2) Isothermal titration calorimetry (ITC) assays were performed using a MicroCal PEAQ-ITC calorimeter (Cytiva Life Sciences), and all experiments were carried out at 20 °C. […] The concentrations of the proteins were determined spectrophotometrically. […]"}, "HP1γ-CSD^W174A": {"molecular_target": "T2, HP1γ-CSD^W174A (Homo sapiens, UniProt Q13185, W174A)", "T2 construct": "HP1γ CSD (110–176aa) and TRIM66 PxVxL motif peptide(856–868aa), mixed at a molar ratio of 1:1.2; His6 (N); made in house", "T2 sequence (Q13185 110-176 W174A)": "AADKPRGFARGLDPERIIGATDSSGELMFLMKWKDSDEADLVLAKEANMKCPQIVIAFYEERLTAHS", "test": "ITC, HP1γ-CSD W174A mutant", "type": "binding", "conditions": "20 °C, 20 mmol/L Tris-HCl, 150 mmol/L NaCl, pH 7.5, Fig. 2F", "description": "as §1, §2"}, "HP1γ-CSD^L172A": {"molecular_target": "T3, HP1γ-CSD^L172A (Homo sapiens, UniProt Q13185, L172A)", "T3 construct": "HP1γ CSD (110–176aa) and TRIM66 PxVxL motif peptide(856–868aa), mixed at a molar ratio of 1:1.2; His6 (N); made in house", "T3 sequence (Q13185 110-176 L172A)": "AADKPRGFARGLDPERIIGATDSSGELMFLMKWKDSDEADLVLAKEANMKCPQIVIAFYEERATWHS", "test": "ITC, HP1γ-CSD L172A mutant", "type": "binding", "conditions": "20 °C, 20 mmol/L Tris-HCl, 150 mmol/L NaCl, pH 7.5, Fig. 2F", "description": "as §1, §2"}, "HP1γ-CSD^R171A": {"molecular_target": "T4, HP1γ-CSD^R171A (Homo sapiens, UniProt Q13185, R171A)", "T4 construct": "HP1γ CSD (110–176aa) and TRIM66 PxVxL motif peptide(856–868aa), mixed at a molar ratio of 1:1.2; His6 (N); made in house", "T4 sequence (Q13185 110-176 R171A)": "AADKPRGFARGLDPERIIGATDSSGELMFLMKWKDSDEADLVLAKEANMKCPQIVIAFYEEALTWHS", "test": "ITC, HP1γ-CSD R171A mutant", "type": "binding", "conditions": "20 °C, 20 mmol/L Tris-HCl, 150 mmol/L NaCl, pH 7.5, Fig. 2G", "description": "as §1, §2"}, "HP1γ-CSD (WT)": {"molecular_target": "T5, HP1γ-CSD (WT) (Homo sapiens, UniProt Q13185)", "T5 construct": "HP1γ CSD (110–176aa) and TRIM66 PxVxL motif peptide(856–868aa), mixed at a molar ratio of 1:1.2; made in house", "T5 sequence (Q13185 110-176)": "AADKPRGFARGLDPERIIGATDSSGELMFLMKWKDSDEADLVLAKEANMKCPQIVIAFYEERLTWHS", "test": "Isothermal titration calorimetry (ITC), HP1γ-CSD wild type", "type": "binding", "conditions": "20 °C, 20 mmol/L Tris-HCl, 150 mmol/L NaCl, pH 7.5, Fig. 2F", "description": "as §1, §2"}, "HP1γ-CSD^I165A": {"molecular_target": "T6, HP1γ-CSD^I165A (Homo sapiens, UniProt Q13185, I165A)", "T6 construct": "HP1γ CSD (110–176aa) and TRIM66 PxVxL motif peptide(856–868aa), mixed at a molar ratio of 1:1.2; His6 (N); made in house", "T6 sequence (Q13185 110-176 I165A)": "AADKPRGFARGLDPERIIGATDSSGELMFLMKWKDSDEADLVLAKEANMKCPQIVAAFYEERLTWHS", "test": "ITC, HP1γ-CSD I165A mutant (monomeric)", "type": "binding", "conditions": "20 °C, 20 mmol/L Tris-HCl, 150 mmol/L NaCl, pH 7.5, Fig. 2F", "description": "as §1, §2"}, "[1]": {"system": "condensates formed by mEGFP-TRIM66 and mCherry-HP1γ in U2OS cells", "test": "Live-cell imaging of condensates before and after 1,6-hexanediol", "type": "cell-based", "conditions": "10% 1,6-hexanediol for 5 min, 10 independent fields from one cell dish", "description": "U2OS cells and HeLa cells were cultured in high-glucose DMEM supplemented with 10% fetal bovine serum and 1% penicillin-streptomycin at 37 °C in a humidified incubator containing 5% CO2. Following the manufacturer's instructions, cells were transfected with plasmid DNA using Lipofectamine 3000 (Thermo Fisher Scientific).\nGenes encoding human TRIM66 or its constructs were cloned into the pmEGFP-C3 (Clontech) vector with an N-terminal mEGFP tag or the Flag vector with an N-terminal Flag tag. Genes encoding human HP1γ or HP1γ^L172A/W174A were cloned into the pcDNA3.1 vector with an N-terminal mCherry tag.\nU2OS cells were cultured on 35-mm glass bottom dishes (Wuxi NEST Biotechnology Co., Ltd) coated with poly-D-lysine (Sigma-Aldrich). L-15 medium without phenol red (Thermo Fisher Scientific) was used during live-cell imaging to maintain a suitable environment for cell growth, and the temperature was kept at approximately 37 °C. Images were obtained with a Nikon Ti fluorescent inverted microscope with a 100× 1.4 NA objective; an XY Piezo Z stage (Applied Scientific Instrumentation); a spinning disk confocal unit (Yokogawa); and an electron multiplier CCD camera (Andor) controlled by IQ3 live-cell imaging software (Andor). Images collected with this system were 16-bit and consisted of 512 × 512 pixels, and the pixel size was 0.12 μm."}, "[2]": {"molecular_target": "HP1γ chromo shadow domain (CSD), residues 110-176 (human) (UniProt Q13185)", "sequence (Q13185 110-176)": "as the sequence (Q13185 110-176) above", "test": "ITC; MicroCal PEAQ-ITC, 20 °C, Buffer B (20 mmol/L Tris-HCl, 150 mmol/L NaCl, pH 7.5); TRIM66 peptide titrated into HP1γ-CSD"}, "[3]": {"system": "HP1γ and nuclear extract (NE)", "test": "GST pull-down assay", "type": "binding, human", "conditions": "glutathione-Sepharose, 20 mmol/L Tris, 150 mmol/L NaCl, 1 mmol/L DTT, pH 7.5, 6 h at 4 °C; SDS-PAGE and western blot", "description": "The gene for human TRIM66 full-length (residues 1–1050) was purchased from Life Technologies. All the DNA fragments for the human TRIM66 (residues 820–909, 840–909) were amplified by PCR. The proteins were cloned into a modified pGEX4T-1vector with a GST tag and TEV protease cleavage site. The proteins were expressed in Escherichia coli BL21 (DE3) cells and induced with 0.5 mmol/L IPTG for 24 h at 16 °C. The protein was purified by GST column (Cytiva Life Sciences), followed by TEV protease cleavage and size-exclusion chromatography on a Hiload 16/60 Superdex 200 column (Cytiva Life Sciences).\nNuclear extracts (NEs) were prepared as described with slight modifications. HeLa cells (1 × 10^8 cells/mL) were suspended with 4 mL of Buffer A comprising 0.5 mmol/L EDTA, 2 mmol/L MgCl2, 0.1% (v/v) protease inhibitor (PI) (Nakalai Tesque, Japan), 2 mmol/L β-mercaptoethanol, 10 mmol/L Tris–HCl, pH 7.8, and centrifuged at 1500 g for 2 min at 4 °C. […] The concentrations of NEs were determined by DNA concentrations calculated from the absorbance at 260 nm.\nThe GST alone control, GST-tagged protein (TRIM66^820–909) was bound to glutathione-Sepharose beads (Cytiva Life Sciences) in a buffer of 20 mmol/L Tris, 200 mmol/L NaCl, and 1 mmol/L DTT at pH 7.5, and incubated at 4 °C for 4 h. […] The proteins captured by beads were eluted and analyzed by SDS-PAGE and western blot."}},
  "note": "Residues, ends and D or L forms follow the SMILES beside them.",
  "data": [
    {"molecule": "CC[C@H](C)[C@H](NC(=O)[C@H](CCCCN)NC(=O)[C@H](Cc1c[nH]cn1)NC(=O)[C@@H](N)CCC(=O)O)C(=O)N1CCC[C@H]1C(=O)N[C@@H](Cc1ccc(O)cc1)C(=O)N[C@H](C(=O)N[C@@H](CCCNC(=N)N)C(=O)N[C@@H](CC(C)C)C(=O)N[C@@H](CCC(=O)O)C(=O)N[C@@H](CCCNC(=N)N)C(=O)N[C@@H](CC(C)C)C(=O)N[C@@H](CCCCN)C(=O)O)C(C)C", "note": "[TRIM66^856-868] (H-EHKIPYVRLERLK-OH)", "values": [
      {"measurement": "Kd", "setting": "HP1γ-CSD^D131A", "result": "1360 ± 109", "unit": "nM"},
      {"measurement": "KD", "setting": "HP1γ-CSD^W174A", "result": "No binding"},
      {"measurement": "KD", "setting": "HP1γ-CSD^L172A", "result": "No binding"},
      {"measurement": "Kd", "setting": "HP1γ-CSD^R171A", "result": "2050 ± 38", "unit": "nM"},
      {"measurement": "Kd", "setting": "HP1γ-CSD (WT)", "result": "280 ± 20", "unit": "nM"},
      {"measurement": "KD", "setting": "HP1γ-CSD^I165A", "result": "No binding"}
    ]},
    {"molecule": "OCCCCCCO", "note": "[1,6-hexanediol]", "values": [
      {"measurement": "effect on mEGFP-TRIM66 and mCherry-HP1γ condensates", "setting": "[1]", "result": "depolymerized and the fluorescence signal was evenly distributed in the entire nucleus"}
    ]},
    {"molecule": "TRIM66 PxVxL motif peptide (residues 856-868)", "values": [
      {"measurement": "Kd", "setting": "[2]", "result": 280, "unit": "nM"},
      {"measurement": "stoichiometry N (HP1γ-CSD per TRIM66 peptide (2:1))", "setting": "[2]", "result": 2}
    ]},
    {"molecule": "B1", "values": [
      {"measurement": "complex formation with HP1γ and NE (GST pull-down)", "setting": "[3]", "result": "can form stable complexes"}
    ]}
  ]
}
